Earlier results on 4 compounds are cited in patent publication US7632828B2, “Gram-positive carbapenem antibacterials and processes for their preparation” (FOB Synthesis, Inc., priority 2004, dated 2009).

In data set [1] the target is T1, mammalian β-lactamase renal dehydropeptidase-I (DHP-I) (Homo sapiens, UniProt P16444).
T1 sequence (P16444 17-385): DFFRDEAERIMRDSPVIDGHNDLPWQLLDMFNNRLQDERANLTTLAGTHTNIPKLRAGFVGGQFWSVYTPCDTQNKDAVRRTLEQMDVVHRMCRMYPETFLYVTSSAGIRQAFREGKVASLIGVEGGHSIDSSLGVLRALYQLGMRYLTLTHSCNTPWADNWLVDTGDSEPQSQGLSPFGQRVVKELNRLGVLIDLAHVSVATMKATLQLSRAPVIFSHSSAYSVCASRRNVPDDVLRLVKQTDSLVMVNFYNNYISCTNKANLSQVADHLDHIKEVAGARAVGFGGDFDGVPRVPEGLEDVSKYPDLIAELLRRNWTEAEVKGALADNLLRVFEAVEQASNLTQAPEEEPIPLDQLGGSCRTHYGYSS

For data set [2] the following is noted: test subjects.
In data set [3] the test system is Pseudomonas spp.
For data set [4] the following is noted: due to its lactam nucleus and amino acid configuration.
The target of data set [5] is T2, kidney dehydropeptidase (Homo sapiens, UniProt P16444).
T2 sequence (P16444 17-385): T1 sequence (P16444 17-385)

Data set [6] concerns wide bacterial spectrum.
Data set [7] relates to Gram-negative bacteria.

In the case of `C[C@@H](O)[C@H]1C(=O)N2C(C(=O)O)=C(SCCN=CN)C[C@H]12` [imipenem, N-formimidoyl thienamycin], the “stability to renal dehydropeptidase-I (DHP-I)” value in data set [1] is “instability”. The urinary tract recovery entry in data set [2] was “poor urinary tract recovery”.
Take `C[C@@H](O)[C@H]1C(=O)N2C(C(=O)O)=C(SCCN)C[C@H]12` [thienamycin]: the “activity against Pseudomonas spp.” value in data set [3] is listed as “active against Pseudomonas spp”. For the same compound, in data set [4], the chemical stability result was “chemically unstable”.
For Biapenem, in data set [5], the “stability against hydrolysis by kidney dehydropeptidase” value is “stability against hydrolysis by kidney dehydropeptidase”. In data set [6], the “potency across bacterial spectrum” value is given as “exhibits potency across a wide bacterial spectrum”.
For meropenem, the “activity against Gram-negative bacteria” value in data set [7] was “active against a large number of Gram-negative bacteria”.
